# Tests used:
# Type in all cases: cell-based
# A-431 cell line = assay: MTT assay on A-431 cell line; conditions: Homo sapiens, after 24 hours of treatment, epidermoid carcinoma cell line
# Protocol: (§1) In this example, anti-cancer activity of benzo[4,5]imidazo[2,1-b]pyrimido[4,5-d][1,3]thiazine-2,4(3H)-dione and benzo[4,5]imidazo[2,1-b][1,3]thiazin-4-one was evaluated on A-431 cell line (an exemplary epidermoid carcinoma cell line), PC-3 cell line (an exemplary classical prostate cancer cell line), PANC-1 cell line (an exemplary pancreas ductal adenocarcinoma cell line)) by conducting an exemplary […] (MTT) assay. Cytotoxic effect of benzo[4,5]imidazo[2,1-b]pyrimido[4,5-d][1,3]thiazine-2,4(3H)-dione and benzo[4,5]imidazo[2,1-b][1,3]thiazin-4-one was also evaluated on Human Dermal Fibroblasts (HDF) cell line (an exemplary normal, human, adult cell line).
# (§2) Meanwhile, the A-431, PC-3, and PANC-1 cell lines were tested by MTT assay after being cultured in DMSO with a concentration of about 1% (v/v) and Etoposide (an anti-cancer chemotherapy drug) as negative and positive controls, respectively. […] “IC50” may refer to a concentration of a compound that may inhibit cell growth and proliferation by 50%.
# PANC-1 cell line = assay: MTT assay on PANC-1 cell line; conditions: Homo sapiens, after 24 hours of treatment, pancreas ductal adenocarcinoma cell line
# Protocol: as §1, §2
# PC-3 cell line = assay: MTT assay on PC-3 cell line; conditions: Homo sapiens, after 24 hours of treatment, prostate cancer cell line
# Protocol: as §1, §2
# [1] = system: Human Dermal Fibroblasts (HDF) cell line; assay: MTT assay, cytotoxic effect on Human Dermal Fibroblasts (HDF) cell line; conditions: after 24 hours of treatment, normal human adult cell line
# Protocol: as §1, §2
Compound,IC50 (A-431 cell line) [µM],IC50 (PANC-1 cell line) [µM],IC50 (PC-3 cell line) [µM],IC50 [1] [µM]
Cc1ccc(C2=C3C(=O)N(C)C(=O)N(C)C3n3c(nc4ccccc43)S2)cc1 (centres unmarked),25.3,24.6,31.9,> 100
"COc1cc([C@@H]2c3cc4c(cc3[C@@H](O[C@@H]3O[C@@H]5CO[C@@H](C)O[C@H]5[C@H](O)[C@H]3O)[C@H]3COC(=O)[C@H]23)OCO4)cc(OC)c1O [Etoposide, reference compound]",27,32.2,25.2,> 100

# Source: US20230111768A1 (Razi University, priority 2021, published 2023)
